Results as given in patent US9073830B2 (Hyundai Pharm Co., Ltd., priority 2011, dated 2015).

How the values were obtained:
[1] = target: T1, human 11β-HSD1 (Homo sapiens, UniProt P28845); assay: Enzyme activity analysis on human 11β-HSD1 (HTRF cortisol, liver microsomes); type: biochemical; details: first value of cell
T1 construct: 100 ug/ml human/mouse liver microsomes; from tissue; host or cells: human liver microsomes
How it was run: (§1)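 Cortisol generated by mouse or human liver microsome 11β-HSD1 during 2 h at 37° C., measured by HTRF competition (cryptate anti-cortisol antibody, d2-cortisol, 2 h room temperature) against a cortisol standard curve. IC50 from percent inhibition versus no-compound control.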

[2] = target: T2, mouse 11β-HSD1 (Mus musculus, UniProt P50172); assay: Enzyme activity analysis on mouse 11β-HSD1 (HTRF cortisol, liver microsomes); type: biochemical; details: second value of cell
T2 construct: 100 ug/ml human/mouse liver microsomes; from tissue; host or cells: mouse liver microsomes
How it was run: as §1

T1 sequence (P28845 whole entry): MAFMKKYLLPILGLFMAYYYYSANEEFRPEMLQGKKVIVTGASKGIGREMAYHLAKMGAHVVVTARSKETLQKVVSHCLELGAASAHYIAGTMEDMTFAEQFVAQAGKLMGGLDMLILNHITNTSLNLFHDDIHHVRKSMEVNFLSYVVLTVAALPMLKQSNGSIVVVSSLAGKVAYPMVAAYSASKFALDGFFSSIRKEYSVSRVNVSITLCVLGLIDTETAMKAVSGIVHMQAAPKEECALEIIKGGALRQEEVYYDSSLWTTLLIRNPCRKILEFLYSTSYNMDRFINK
T2 sequence (P50172 whole entry): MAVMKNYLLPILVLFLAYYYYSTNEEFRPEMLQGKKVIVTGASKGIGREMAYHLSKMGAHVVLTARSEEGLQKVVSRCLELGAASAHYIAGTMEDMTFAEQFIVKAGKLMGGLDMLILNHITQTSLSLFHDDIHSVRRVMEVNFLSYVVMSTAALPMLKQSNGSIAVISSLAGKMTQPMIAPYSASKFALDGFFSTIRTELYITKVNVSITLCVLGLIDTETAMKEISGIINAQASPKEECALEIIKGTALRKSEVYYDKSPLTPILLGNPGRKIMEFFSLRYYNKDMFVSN

SMILES | IC50 [1] [µM] | IC50 [2] [µM]
CC(C)(NS(=O)(=O)c1ccc(F)cc1Br)C(=O)NC1C2CC3CC1CC(C(N)=O)(C3)C2 (centres unmarked) [compound 101, N-4-(2-(2-bromo-4-fluorophenylsulfonamido)-2-methylpropanamido)adamantane-1-carboxyamide] | 0.009 | 0.014
CC(C)(NS(=O)(=O)c1cccc(Cl)c1F)C(=O)NC1C2CC3CC1CC(C(N)=O)(C3)C2 (centres unmarked) [compound 102, N-4-(2-(2-fluoro-3-chlorophenylsulfonamido)-2-methylpropanamido)adamantane-1-carboxyamide] | 0.02 | 0.037
Cc1ccc(S(=O)(=O)NC(C)(C)C(=O)NC2C3CC4CC2CC(C(N)=O)(C4)C3)cc1Cl (centres unmarked) [compound 103, N-4-(2-(3-chloro-4-methylphenylsulfonamido)-2-methylpropanamido)adamantane-1-carboxyamide] | 0.026 | 0.037
CC(C)(NS(=O)(=O)c1cccc([N+](=O)[O-])c1)C(=O)NC1C2CC3CC1CC(C(N)=O)(C3)C2 (centres unmarked) [compound 107, N-4-(2-(3-nitrophenylsulfonamido)-2-methylpropanamido)adamantane-1-carboxyamide] | 0.178 | 0.563
CC(C)(NS(=O)(=O)c1cc(C(F)(F)F)ccc1C(F)(F)F)C(=O)NC1C2CC3CC1CC(C(N)=O)(C3)C2 (centres unmarked) [compound 109, N-4-(2-(2,5-bistrifluoromethylphenylsulfonamido)-2-methylpropanamido)adamantane-1-carboxyamide] | 0.045 | 1.24
CC(C)(NS(=O)(=O)c1cc(C(F)(F)F)ccc1Br)C(=O)NC1C2CC3CC1CC(C(N)=O)(C3)C2 (centres unmarked) [compound 110, N-4-(2-(2-bromo-5-trifluoromethylphenylsulfonamido)-2-methylpropanamido)adamantane-1-carboxyamide] | 0.014 | 0.556
COc1ccc(S(=O)(=O)NC(C)(C)C(=O)NC2C3CC4CC2CC(C(N)=O)(C4)C3)cc1[N+](=O)[O-] (centres unmarked) [compound 111, N-4-(2-(3-nitro-4-methoxyphenylsulfonamido)-2-methylpropanamido)adamantane-1-carboxyamide] | 1.3 | 2.46
CC(C)(NS(=O)(=O)c1c(Cl)cc(Cl)cc1Cl)C(=O)NC1C2CC3CC1CC(C(N)=O)(C3)C2 (centres unmarked) [compound 112, N-4-(2-(2,4,6-trichlorophenylsulfonamido)-2-methylpropanamido)adamantane-1-carboxy amide] | 0.024 | 0.011
CC(C)(NS(=O)(=O)c1ccc([N+](=O)[O-])c(C(F)(F)F)c1)C(=O)NC1C2CC3CC1CC(C(N)=O)(C3)C2 (centres unmarked) [compound 113, N-4-(2-(3-trifluoromethyl-4-nitrophenylsulfonamido)-2-methylpropanamido)adamantane-1-carboxyamide] | 0.208 | 0.215
Cc1ccc(S(=O)(=O)NC(C)(C)C(=O)NC2C3CC4CC2CC(C(N)=O)(C4)C3)cc1[N+](=O)[O-] (centres unmarked) [compound 114, N-4-(2-(3-nitro-4-methylphenylsulfonamido)-2-methylpropanamido)adamantane-1-carboxyamide] | 0.093 | 0.207
COc1ccc(S(=O)(=O)NC(C)(C)C(=O)NC2C3CC4CC2CC(C(N)=O)(C4)C3)cc1F (centres unmarked) [compound 115, N-4-(2-(3-fluoro-4-methoxyphenylsulfonamido)-2-methylpropanamido)adamantane-1-carboxyamide] | 0.235 | 0.456
CC(C)(NS(=O)(=O)c1ccc(F)c(F)c1F)C(=O)NC1C2CC3CC1CC(C(N)=O)(C3)C2 (centres unmarked) [compound 116, N-4-(2-(2,3,4-trifluorophenylsulfonamido)-2-methylpropanamido)adamantane-1-carboxy amide] | 0.035 | 0.122
CC(C)(NS(=O)(=O)c1cc(F)c(F)c(F)c1)C(=O)NC1C2CC3CC1CC(C(N)=O)(C3)C2 (centres unmarked) [compound 118, N-4-(2-(3,4,5-trifluorophenylsulfonamido)-2-methylpropanamido)adamantane-1-carboxy amide] | 0.116 | 0.224
CC(C)(NS(=O)(=O)c1cc(F)ccc1F)C(=O)NC1C2CC3CC1CC(C(N)=O)(C3)C2 (centres unmarked) [compound 120] | 0.051 | 0.453
CC(C)(NS(=O)(=O)c1cccc(Br)c1)C(=O)NC1C2CC3CC1CC(C(N)=O)(C3)C2 (centres unmarked) [compound 123] | 0.139 | 0.291
CC(C)(NS(=O)(=O)c1ccc(Br)cc1)C(=O)NC1C2CC3CC1CC(C(N)=O)(C3)C2 (centres unmarked) [compound 124] | 0.024 | 0.22
CC(C)(NS(=O)(=O)c1cc(Cl)cc(Br)c1)C(=O)NC1C2CC3CC1CC(C(N)=O)(C3)C2 (centres unmarked) [compound 125] | 0.021 | 0.168
CC(C)(NS(=O)(=O)c1ccc(C(F)(F)F)cc1)C(=O)NC1C2CC3CC1CC(C(N)=O)(C3)C2 (centres unmarked) [compound 126] | 0.182 | 0.455
CC(C)(NS(=O)(=O)c1cccc(C(F)(F)F)c1)C(=O)NC1C2CC3CC1CC(C(N)=O)(C3)C2 (centres unmarked) [compound 127] | 0.062 | 0.053

SMILES | IC50 [1] [µM] | IC50 [2] [µM]
COc1cc([N+](=O)[O-])ccc1S(=O)(=O)NC(C)(C)C(=O)NC1C2CC3CC1CC(C(N)=O)(C3)C2 (centres unmarked) [compound 128] | 0.076 | 0.22
COc1ccc(S(=O)(=O)NC(C)(C)C(=O)NC2C3CC4CC2CC(C(N)=O)(C4)C3)c(OC)c1 (centres unmarked) [compound 129] | 0.096 | 0.589
CC(C)(NS(=O)(=O)c1ccccc1C#N)C(=O)NC1C2CC3CC1CC(C(N)=O)(C3)C2 (centres unmarked) [compound 130, 4-[2-(2-cyano-benzenesulfonylamino)-2-methyl-propionylamino]-adamantane-1-carboxylic acid amide] | 0.078 | 0.405
NC(=O)C12CC3CC(C1)C(NC(=O)C1(NS(=O)(=O)c4ccccc4Br)CC1)C(C3)C2 (centres unmarked) [compound 131, N-4-(1-(2-bromophenylsulfonamido)cyclopropanecarboxyamido)adamantane-1-carboxyamide] | 0.008 | 0.048
NC(=O)C12CC3CC(C1)C(NC(=O)C1(NS(=O)(=O)c4ccccc4Cl)CC1)C(C3)C2 (centres unmarked) [compound 132, N-4-(1-(2-chlorophenylsulfonamido)cyclopropanecarboxyamido)adamantane-1-carboxyamide] | 0.037 | 0.148
Cc1c(Cl)cccc1S(=O)(=O)NC1(C(=O)NC2C3CC4CC2CC(C(N)=O)(C4)C3)CC1 (centres unmarked) [compound 133, N-4-(1-(2-methyl-3-chlorophenylsulfonamido)cyclopropanecarboxyamido)adamantane-1-carboxyamide] | 0.015 | 0.074
NC(=O)C12CC3CC(C1)C(NC(=O)C1(NS(=O)(=O)c4c(Cl)cccc4Cl)CC1)C(C3)C2 (centres unmarked) [compound 134, N-4-(1-(2,6-dichlorophenylsulfonamido)cyclopropanecarboxyamido)adamantane-1-carboxyamide] | 0.021 | 0.021
NC(=O)C12CC3CC(C1)C(NC(=O)C1(NS(=O)(=O)c4cccc5cccnc45)CC1)C(C3)C2 (centres unmarked) [compound 135, N-4-(1-(quinoline-8-sulfonamido)cyclopropanecarboxyamido)adamantane-1-carboxyamide] | 0.042 | 0.02
NC(=O)C12CC3CC(C1)C(NC(=O)C1(NS(=O)(=O)c4cccc(Cl)c4Cl)CC1)C(C3)C2 (centres unmarked) [compound 136, N-4-(1-(2,3-dichlorophenylsulfonamido)cyclopropanecarboxyamido)adamantane-1-carboxyamide] | 0.009 | 0.028
O=C(NC1C2CC3CC(C2)CC1C3)C1(NS(=O)(=O)c2ccccc2[N+](=O)[O-])CCC1 (centres unmarked) [compound 137, N-(adamantane-2-yl)-1-(2-nitrophenylsulfonamido)cyclobutanecarboxyamide] | 0.255 | 1.1
O=C(NC1C2CC3CC(C2)CC1C3)C1(NS(=O)(=O)c2ccccc2Br)CCC1 (centres unmarked) [compound 138, N-(adamantane-2-yl)-1-(2-bromophenylsulfonamido)cyclobutanecarboxyamide] | 0.113 | 0.806
O=C(NC1C2CC3CC(C2)CC1C3)C1(NS(=O)(=O)c2ccccc2)CCC1 (centres unmarked) [compound 139] | 0.547 | 0.178
O=C(NC1C2CC3CC(C2)CC1C3)C1(NS(=O)(=O)c2ccccc2C(F)(F)F)CCC1 (centres unmarked) [compound 140, N-(adamantane-2-yl)-1-(2-trifluoromethylphenylsulfonamido)cyclobutanecarboxyamide] | 0.184 | 1.68
O=C(NC1C2CC3CC(C2)CC1C3)C1(NS(=O)(=O)c2cccc3cccnc23)CCC1 (centres unmarked) [compound 141, N-(adamantane-2-yl)-1-(quinoline-8-sulfonamido)cyclobutanecarboxyamide] | 0.139 | 0.208
O=C(NC1C2CC3CC(C2)CC1C3)C1(NS(=O)(=O)c2cccc([N+](=O)[O-])c2)CCC1 (centres unmarked) [compound 142, N-(adamantane-2-yl)-1-(3-nitrophenylsulfonamido)cyclobutanecarboxyamide] | > 2.5 | 1.44
O=C(NC1C2CC3CC(C2)CC1C3)C1(NS(=O)(=O)c2ccc([N+](=O)[O-])cc2)CCC1 (centres unmarked) [compound 143, N-(adamantane-2-yl)-1-(4-nitrophenylsulfonamido)cyclobutanecarboxyamide] | > 2.5 | > 2.5
O=C(NC1C2CC3CC(C2)CC1C3)C1(NS(=O)(=O)c2ccccc2OC(F)(F)F)CCC1 (centres unmarked) [compound 144, N-(adamantane-2-yl)-1-(2-trifluoromethoxyphenylsulfonamido)cyclobutanecarboxyamide] | 0.265 | 1.82
NC(=O)C12CC3CC(C1)C(NC(=O)C1(NS(=O)(=O)c4ccccc4[N+](=O)[O-])CCC1)C(C3)C2 (centres unmarked) [compound 145, N-4-(1-(2-nitrophenylsulfonamido)cyclobutanecarboxyamido)adamantane-1-carboxyamide] | 0.08 | 0.509
